PubChem BioAssay AID1919005 (Molecular Pharmacology Branch, DTP, NCI, 2023)

Test system: 855422-203-R-J1-PDC complex spheroid growth
Assay: Anticancer human tumor 855422-203-R-J1-PDC patient-derived bladder carcinoma cell line growth inhibition [AhR]
Details: for IC50: curve of first compound; for viability, T/C: stronger effect = lower value
Source text: Multicellular complex tumor spheroid response to aryl hydrocarbon receptor antagonists in combination with a variety of drugs and investigational agents in selected tumor cell lines
The current study was undertaken to assess response to aryl hydrocarbon receptor antagonists in combination with standard-of-care drugs and investigational agents in solid tumor complex spheroid models. Complex spheroids include a stromal component modeled by human endothelial cells (HUVEC) and fibroblasts modeled by human mesenchymal stem cells (MSCs). The concentration ranges selected for each drug and investigational agent were based upon clinically achievable concentrations if the clinical Cmax of the agent was known.
Compounds. The drugs and investigational agents: BAY 2416964 (NSC825713), GNF351 (NSC835774), CH-223191 (NSC835775), CPI-455 (NSC825282), aza-TdCyd (NSC777586), decitabine (NSC127716), belinostat (NSC758774), entinostat (NSC756642), pevonedistat (NSC761192), tazemetostat (NSC777109), talazoparib (NSC765396), olaparib (NSC753686), selinexor (NSC780203), nedisertib (M3814, NSC802822), bortezomib (NSC756655), venetoclax (NSC766270), doxorubicin (NSC123127), elimusertib (BAY189344, NSC800525), ceralasertib (AZD6738, NSC777638), TAK-243 (NSC785004), alisertib (NSC759677), etoposide (NSC141540), topotecan (NSC609699), eribulin (NSC707389), gemcitabine (NSC613327), carboplatin (NSC241240), cisplatin (NSC119875), and SN-38 (NSC673596) were obtained from the National Cancer Institute (NCI) Developmental Therapeutics Program Chemical Repository (32). The FDA-approved anticancer drug set is available from the Developmental Therapeutics Program at https://dtp.cancer.gov/organization/dscb/obtaining/available plates.htm. […] The stock solutions were prepared in dimethyl sulfoxide (DMSO, Sigma-Aldrich, St. Louis, MO, cat. D2650), except for the platinum compounds which were prepared in saline (Quality Biological, Gaithersburg, MD, cat. 114-055-101), at 800-fold the tested concentration and stored at -70 degrees C prior to their use. All drugs and investigational agents were tested over a range starting from a high concentration at or near the clinical Cmax and decreasing in half-log increments. If the clinical Cmax for an agent had not been determined, the highest concentration tested was 10 microM (Table 1).
Cell Culture. All cells were maintained in an incubator at 37 degrees C and 5% CO2 with 95% humidity. The PDC lines were cultured according to standard operating procedures established by the NCI PDMR (https://pdmr.cancer.gov). Briefly, all PDCs were thawed and cultured in Matrigel-coated flasks prepared with a working solution of 1X Ham's F-12 nutrient mix, without supplementation (Invitrogen, Waltham, MA, cat. 11765054), 100 U/mL penicillin-streptomycin (Invitrogen, cat. 15140122), and 2.5% Matrigel (Corning Inc., Corning, NY, cat. 354248) for the first three passages. All PDCs were cultured in complete DMEM/F-12 media containing advanced DMEM/F-12 (Invitrogen, cat. 12634028), 4.9% defined fetal bovine serum, heat inactivated (HyClone Laboratories Inc., Logan, UT, cat. SH30070.03HI), 389 ng/mL hydrocortisone (Sigma-Aldrich, cat. H4001), 9.7 ng/mL human EGF recombinant protein (Invitrogen, cat. PHG0313), 23.4 microg/mL adenine (Sigma-Aldrich, cat. A2786), 97.3 U/mL penicillin-streptomycin (Invitrogen, cat. 15140122), 1.9 mM L-glutamine (Invitrogen, cat. 25030081), and 9.7 microM Y-27632 dihydrochloride (Tocris Bioscience, Bristol, United Kingdom, cat. 1254). The PDCs were cultured in complete DMEM/F12 media without 10 microM Y-27632 dihydrochloride for at least two passages prior to the screen. The established cell lines NCI-H1341 and […] were cultured in DMEM/F-12, HEPES (Invitrogen, cat. 11330032), 5% defined fetal bovine serum (HyClone Laboratories Inc., cat. SH30070.03), ITS premix universal culture supplement [insulin (5 microg/mL), transferrin (5 microg/mL), and selenious acid (5 ng/mL)] […]
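Also: spheroids exposed to agents for seven days before readout.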
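For viability, T/C in this document: percent of DMSO vehicle control luminescence viability.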

With `Nc1ncn(C2CC(O)C(CO)S2)c(=O)n1` (stereo not given) + Cc1ccccc1N=Nc1ccc(NC(=O)c2ccnn2C)c(C)c1 the IC50 (second compound 0.1 µM) was > 0.3 µM, the IC50 (second compound 0.316 µM) was > 0.3 µM and the IC50 (second compound 1 µM) was > 0.3 µM. The IC50 (second compound 3.16 µM) was > 0.3 µM, the IC50 (second compound 10 µM) was > 0.3 µM and the viability, T/C (second compound 0.1 µM, first compound 0.000949 µM) was 99.8%. The viability, T/C (second compound 0.1 µM, first compound 0.003 µM) was 94.9%, the viability, T/C (second compound 0.1 µM, first compound 0.00949 µM) was 98% and the viability, T/C (second compound 0.1 µM, first compound 0.03 µM) was 95.9%. For the same molecule, the viability, T/C (second compound 0.1 µM, first compound 0.0949 µM) was 97%, the viability, T/C (second compound 0.1 µM, first compound 0.3 µM) was 93.8% and the viability, T/C (second compound 0.316 µM, first compound 0.000949 µM) was 104%. For the same molecule, the viability, T/C (second compound 0.316 µM, first compound 0.003 µM) was 97.7%, the viability, T/C (second compound 0.316 µM, first compound 0.00949 µM) was 97.7% and the viability, T/C (second compound 0.316 µM, first compound 0.03 µM) was 99.8%. For the same molecule, the viability, T/C (second compound 0.316 µM, first compound 0.0949 µM) was 95.4%, the viability, T/C (second compound 0.316 µM, first compound 0.3 µM) was 101% and the viability, T/C (second compound 1 µM, first compound 0.000949 µM) was 100%. It also gave a viability, T/C (second compound 1 µM, first compound 0.003 µM) of 100%, a viability, T/C (second compound 1 µM, first compound 0.00949 µM) of 92.5% and a viability, T/C (second compound 1 µM, first compound 0.03 µM) of 98.2%. The viability, T/C (second compound 1 µM, first compound 0.0949 µM) was 98%, the viability, T/C (second compound 1 µM, first compound 0.3 µM) was 92.6% and the viability, T/C (second compound 3.16 µM, first compound 0.000949 µM) was 98.9%. For the same molecule, the viability, T/C (second compound 3.16 µM, first compound 0.003 µM) was 87.2%, the viability, T/C (second compound 3.16 µM, first compound 0.00949 µM) was 90.2% and the viability, T/C (second compound 3.16 µM, first compound 0.03 µM) was 86.3%. The viability, T/C (second compound 3.16 µM, first compound 0.0949 µM) was 93.7%, the viability, T/C (second compound 3.16 µM, first compound 0.3 µM) was 84.5% and the viability, T/C (second compound 10 µM, first compound 0.000949 µM) was 87.6%. The viability, T/C (second compound 10 µM, first compound 0.003 µM) was 80.8%, the viability, T/C (second compound 10 µM, first compound 0.00949 µM) was 82% and the viability, T/C (second compound 10 µM, first compound 0.03 µM) was 90.3%. For the same molecule, the viability, T/C (second compound 10 µM, first compound 0.0949 µM) was 91.4% and the viability, T/C (second compound 10 µM, first compound 0.3 µM) was 78%.
